In experiment [1] the test system is Otiorynchus sulcatus. The experiment can be described thus: Compost incorporation test, protection of potted plants from weevil larvae (Example 1). The class given is in vivo. The following applies: Thuya plicata Atrovirens. Here is the method: In a twenty-replicate test, Compound A was incorporated in compost by mixing a 2% w/w granule with the compost (Klasmann Substrat 2 (Peat based) ) using a small mechanical mixer. Plants of Thuya plicata Atrovirens were potted in the compost and allowed to grow for two months and then about 15 eggs of Otiorynchus sulcatus were added to the soil and covered with a small layer of compost. As a comparison, some compost was untreated and other compost was treated with the standard chlorpyrifos in the form of the commercial product suSCon Green®. After 27 days the soil was reinfested with 15 more eggs. The plant pots were enclosed such that the plants were exposed to light and the adult beetles which emerged could not escape.
Of the twenty replicates of each test, five were assessed after 6 months and fifteen were assessed after 18 months for numbers of larvae and adults. After 6 months the following results were observed: […]

The test system of experiment [2] is vine weevil. The experiment can be described thus: Curative drench treatment of infested potted plants (Example 2). The class given is in vivo. The note with it: after 6 months, Fuchsia triphylla hybrid cv. Koralle. Here is the method:
In 20-replicate tests, Fuchsia triphylla hybrid cv. Koralle was infested with 15 eggs per pot of vine weevil. Compound A in the form of an 80% water dispersible granule (Regent 800 WG) was suspended in water and added to each pot at the indicated rate per surface area of the pot at various dilutions. After 6 months, the trials were assessed. […] Drench Treatments

Setting [3] is: Dose 75 g/m^3 in compost (suSCon Green), after 6 months, five replicates.
The mark [4] stands for this setting: Dose 75 g/m^3 in compost (suSCon Green), after 18 months, fifteen replicates.
The mark [5] stands for this setting: Dose 2.5 g/m^3 in compost, after 6 months, five replicates.
The mark [6] stands for this setting: Dose 2.5 g/m^3 in compost, after 18 months, fifteen replicates.
Where [7] appears, read: Dose 5 g/m^3 in compost, after 6 months, five replicates.
Setting [8] is: Dose 5 g/m^3 in compost, after 18 months, fifteen replicates.
The mark [9] stands for this setting: Dose 7.5 g/m^3 in compost, after 6 months, five replicates.
Where [10] appears, read: Dose 7.5 g/m^3 in compost, after 18 months, fifteen replicates.
Where [11] appears, read: Dose 15 g/m^3 in compost, after 6 months, five replicates.
[12] abbreviates: Dose 15 g/m^3 in compost, after 18 months, fifteen replicates.

For `CCOP(=S)(OCC)Oc1nc(Cl)c(Cl)cc1Cl` [Chlorpyrifos, chlorpyrifos, reference compound], in experiment [1] (setting [3]), the “% Control” value came out at 87%, the Number per pot is 0.8 and the “Total # larvae” value turned out to be 4. In experiment [1] (setting [4]), the “% Control” value was 0%, the “% Survival of Plants” value is listed as 100%, the Number per pot is on record as 3.1 and the “Total # larvae” value is 47. Moreover, in experiment [1] (setting [4]), the “Total Dead Plants” value is reported as 0.
Regarding `N#Cc1nn(-c2c(Cl)cc(C(F)(F)F)cc2Cl)c(N)c1[S+]([O-])C(F)(F)F` (centres unmarked) [Compound A, 5-amino-1-(2,6-dichloro 4-trifluoromethylphenyl) 4-trifluoromethylsulfinyl-3-cyanopyrazole], the “% Control” value in experiment [1] (setting [5]), in experiment [1] (setting [6]), in experiment [1] (setting [7]), in experiment [1] (setting [8]), in experiment [1] (setting [9]) and in experiment [1] (setting [10]) was 100% throughout. Also, the “% Control” value in experiment [1] (setting [11]) and in experiment [1] (setting [12]) was 100% in each case. In addition, the Number per pot in experiment [1] (setting [5]), in experiment [1] (setting [6]), in experiment [1] (setting [7]), in experiment [1] (setting [8]), in experiment [1] (setting [9]) and in experiment [1] (setting [10]) was 0 throughout. Also, the Number per pot in experiment [1] (setting [11]) and in experiment [1] (setting [12]) was 0 each time. Moreover, the “Total # larvae” value in experiment [1] (setting [5]), in experiment [1] (setting [6]), in experiment [1] (setting [7]), in experiment [1] (setting [8]), in experiment [1] (setting [9]) and in experiment [1] (setting [10]) was 0 throughout. Also, the “Total # larvae” value in experiment [1] (setting [11]) and in experiment [1] (setting [12]) was 0 throughout. Besides, the “% Survival of Plants” value in experiment [1] (setting [6]), in experiment [1] (setting [8]), in experiment [1] (setting [10]) and in experiment [1] (setting [12]) was 100% each time. Besides, the “Total Dead Plants” value in experiment [1] (setting [6]), in experiment [1] (setting [8]), in experiment [1] (setting [10]) and in experiment [1] (setting [12]) was 0 each time. Besides, the “Protection of the plants compared with the commercial standard” value in experiment [2] is “protected the plants substantially better than the commercial standard fonofos”.

The values are drawn from patent publication EP0962138B1, “Pesticidal method” (BASF Agro B.V., Arnhem (NL), Wädenswil-Branch, priority 1998, dated 1999).
